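Following 48 hours of exposure in 96-well plates, responses at five concentrations were used to interpolate endpoints linearly. TGI marks complete inhibition of growth.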
Legend:
Test in all cases: NCI tumour cell line growth inhibition, 48 h
786-0 renal = test system: 786-0 renal
A498 renal = test system: A498 renal
A549 NSCLC = test system: A549 NSCLC
ACHN renal = test system: ACHN renal
CAKI-1 renal = test system: CAKI-1 renal
CCRF-CEM leukemia = test system: CCRF-CEM leukemia
COLO 205 colon = test system: COLO 205 colon
DLD-1 colon = test system: DLD-1 colon
DMS 114 small cell lung = test system: DMS 114 small cell lung
DMS 273 small cell lung = test system: DMS 273 small cell lung
EKVX NSCLC = test system: EKVX NSCLC
HCC-2998 colon = test system: HCC-2998 colon
HCT-116 colon = test system: HCT-116 colon
HCT-15 colon = test system: HCT-15 colon
HL-60(TB) leukemia = test system: HL-60(TB) leukemia
HOP-18 NSCLC = test system: HOP-18 NSCLC
HOP-62 NSCLC = test system: HOP-62 NSCLC
HOP-92 NSCLC = test system: HOP-92 NSCLC
HT29 colon = test system: HT29 colon
IGROV1 ovarian = test system: IGROV1 ovarian
K-562 leukemia = test system: K-562 leukemia
KM12 colon = test system: KM12 colon
KM20L2 colon = test system: KM20L2 colon
LXFL 529 NSCLC = test system: LXFL 529 NSCLC
M14 melanoma = test system: M14 melanoma
M19-MEL melanoma = test system: M19-MEL melanoma
MOLT-4 leukemia = test system: MOLT-4 leukemia
NCI-H23 lung = test system: NCI-H23 lung
NCI-H460 lung = test system: NCI-H460 lung
OVCAR-3 ovarian = test system: OVCAR-3 ovarian
OVCAR-4 ovarian = test system: OVCAR-4 ovarian
OVCAR-8 ovarian = test system: OVCAR-8 ovarian
RPMI-8226 leukemia = test system: RPMI-8226 leukemia
RXF 393 renal = test system: RXF 393 renal
SF-295 CNS = test system: SF-295 CNS
SF-539 CNS = test system: SF-539 CNS
SK-MEL-2 melanoma = test system: SK-MEL-2 melanoma
SK-MEL-28 melanoma = test system: SK-MEL-28 melanoma
SK-OV-3 ovarian = test system: SK-OV-3 ovarian
SN12C renal = test system: SN12C renal
SNB-19 CNS = test system: SNB-19 CNS
SNB-75 CNS = test system: SNB-75 CNS
SNB-78 CNS = test system: SNB-78 CNS
SR leukemia = test system: SR leukemia
SW-620 colon = test system: SW-620 colon
U251 CNS = test system: U251 CNS
UACC-257 melanoma = test system: UACC-257 melanoma
UACC-62 melanoma = test system: UACC-62 melanoma
UO-31 renal = test system: UO-31 renal
MALME-3M melanoma = test system: MALME-3M melanoma
NCI-H522 lung = test system: NCI-H522 lung
OVCAR-5 ovarian = test system: OVCAR-5 ovarian
SF-268 CNS = test system: SF-268 CNS
SK-MEL-5 melanoma = test system: SK-MEL-5 melanoma
TK-10 renal = test system: TK-10 renal
XF 498 CNS = test system: XF 498 CNS

Measured: TGI

CC(=O)/C=C1/c2ccccc2N(C(C)=O)C1O (stereo not given)
not listed: MALME-3M melanoma | NCI-H522 lung | OVCAR-5 ovarian | SF-268 CNS | SK-MEL-5 melanoma | TK-10 renal | XF 498 CNS
> 100 µM: all other assays above

COc1ccc2c(OC)c3ccoc3nc2c1O
not listed: DMS 273 small cell lung | HL-60(TB) leukemia | HOP-92 NSCLC | RXF 393 renal | SR leukemia
> 100 µM: all other assays above
